According to paper PMC13183915, “A platinum butterfly effect: small changes turn an anticancer drug into a non-toxic metalloantibiotic with in vivo efficacy” (npj Antimicrobials and Resistance, 2026):
Several values for one entry are separate records, joined by “and”; a condition that tells them apart may be missing. Identical values can stand only once.

How the values were obtained:
[1] = tested on: Galleria mellonella infection model; design: method as in PMID 34018686; settings: systematic infection model; cited from earlier work
[2] = tested on: methicillin-sensitive Staphylococcus aureus (MSSA), clinical isolate; experiment: MIC assay, MSSA clinical isolate; assay type: cell-based; settings: MSSA clinical isolate
B. subtilis 168CA = experiment: MIC against B. subtilis 168CA (mode of action conditions); assay type: cell-based, Bacillus subtilis; settings: 16 h
Procedure: To establish a starting concentration for the OSC assay, MICs against parent strain 168CA were determined under conditions equivalent to those used for mode of action assays. MICs were determined according to the Clinical Laboratory Standardization Institute (CLSI) in a serial microdilution assay. […] Cultures were incubated for 16 h at 37 °C under constant agitation. MICs were used as basis for OSC determination. To this end, growth curves were recorded using optical density (OD) measurements. Culture volumes of 20 mL were grown until reaching an OD600 of 0.3. […] An untreated culture served as control. Growth was followed until cultures reached the stationary phase. A concentration achieving 50–70% growth inhibition in exponential phase was selected as optimal stressor concentration.

[3] = tested on: FtsZ (B. subtilis 2020, Pxyl-gfp-ftsZ); experiment: Localization of FtsZ (cell division reporter); assay type: cell-based, Bacillus subtilis; settings: 3.12 µM Pt1, 25 µM Pt8; 30 and 60 min
Procedure: B. subtilis strains were grown in LB containing appropriate inducer concentrations as specified in Table S10. After reaching an OD600 of 0.3, cultures were split and treated with antibiotics. Samples were withdrawn after 30 and 60 min of treatment, spotted on glass slides covered with 1% agarose films, and immediately imaged.
Figure S8: Localization of FtsZ in B. subtilis 2020 (Pxyl-gfp-ftsZ). Cultures were treated with
(1 picture or pasted object on this page, not shown here)

[4] = Stability by 1H and 195Pt NMR; assay type: physicochemical
Procedure: Measurements were repeated after the 24 h and 48 h of incubations at 37 °C.
Then, 10% D2O was added and 1H NMR was recorded immediately and after 24 h of incubation at 37 °C.

λ-phage DNA = experiment: Single-molecule imaging of YOYO-1-labeled λ-DNA, DNA length analysis; assay type: biochemical
B. subtilis bSS82 = experiment: Bacterial cytological profiling (BCP); assay type: cell-based, Bacillus subtilis
Source text: To get an overview of the cellular effects of the compounds, we employed bacterial cytological profiling (BCP). To this end, we used a strain intracellularly expressing green-fluorescent protein (GFP) from the strong, constitutive PrpsD promoter (B. subtilis bSS82[37]), stained with the membrane dye Nile red and the DNA dye DAPI. Combined with phase contrast microscopy, this setup allows simultaneous assessment of cell morphology, cell lysis, pore formation, membrane morphology, and nucleoid morphology in one assay.
BCP was performed according to Wenzel et al.[71]. In short, B. subtilis strain […] (PrpsD-gfp) was grown to an OD600 of 0.3 prior to splitting of parent cultures and addition of antibiotics. Samples were taken for microscopy after 30, 60, and 120 min of antibiotic treatment. Five minutes prior to sampling, cultures were stained with 0.5 µg/mL Nile red and 1 µg/mL DAPI for 5 min. Samples of 0.5 µL were then spotted onto 1% agarose slides[45] and images were taken immediately.
Cell length and DAPI intensity were analyzed using MicrobeJ[73]. To this end, the fit shape, rod-shaped setting was used with a minimum area of 0.5 µm, while all other settings remained at default. B. subtilis chains were seperated based on the membrane stain. Membrane stress was counted using the ObjectJ plugin[74], using the membrane setting to seperate individual cells in chains. Membrane damage was expressed as ratio of cells with visible Nile red foci and total detected cells. DNA compaction was analyzed by determining the area of the DNA and the whole cell are using advanced weka segmentation. Cells were segmented according to the GFP signal. […] Cells that were out of focus or lysed were excluded from the analysis. Statistical analysis was peformed using GraphPad Prism 10 as specified in the individual figure legends.

[5] = tested on: methicillin-resistant S. aureus (MRSA) COL; experiment: MIC assay, MRSA COL; assay type: cell-based, Staphylococcus aureus; settings: MRSA COL
S. aureus ATCC 29213 = experiment: Drug interaction study (chequerboard assay); assay type: cell-based
Procedure: All compounds were freshly prepared for the experiment. […] Following incubation, the fractional inhibitory concentration index (FICI) was calculated with the formula FICI = […], whereby FICA = MIC of drug A in combination/MIC of drug A alone and FICB = MIC of drug B in combination/MIC of drug B alone. A drug combination is considered synergistic when ∑FICI is ≤0.5, indifferent when ∑FICI is >0.5 to 4, and antagonistic when ∑FICI is >4.

[6] = tested on: human red blood cells (RBC); experiment: Hemolysis assay in hRBCs; assay type: cell-based; settings: 4 hours at 20 °C
Vero cells = experiment: Cytotoxicity against Vero cells (MTT assay); assay type: cell-based, African Green Monkey; settings: 72 h
Procedure: Cell toxicity was performed against Vero cells using the MTT assay. ~10^3 cells/well were seeded in 96 well plate and incubated at 37 °C with 5% CO2 atmosphere. […] After the incubation was over, MTT was added in each well, incubated at 37 °C for further 4 h, residual medium was discarded, 0.1 mL of DMSO was added to solubilize the formazan crystals and OD540 was taken for the calculation of IC50. Doxorubicin was used as positive control and each experiment was repeated in triplicate.

MRSA NRS 191 = experiment: Broth microdilution MIC, MRSA NRS 191; assay type: cell-based, S. aureus; settings: MRSA NRS 191
Procedure: The data is given in supporting information (Table S5). Before starting the experiment, a single colony was picked from MHA plate, inoculated in MHBII and incubated overnight at 37 °C with shaking for 18–24 h to get the starter culture. Antibiotic susceptibility testing was conducted according to the CLSI (Clinical & Laboratory Standards Institute) guidelines using the broth microdilution assay. 10 mg/mL stock solutions of test compounds were prepared in DMSO. Bacterial cultures were inoculated in MHBII and optical density (OD) was measured at 600 nm, followed by dilution to achieve ~10^6 CFU/mL. The compounds were tested from 64 to 0.5 mg/L in two-fold serial diluted fashion with 2.5 μL of each concentration added to well of a 96-well round bottom microtiter plate. Later, 97.5 μL of bacterial suspension was added to each well containing either test compound or appropriate controls. […] The MIC is defined as the lowest concentration of the compound at which there is absence of visible growth. For each test compound, MIC determinations were carried out independently three times using duplicate samples.

[7] = 60 min, Pt1 3.125 µM, Pt8 25 µM, CisPt 100 µM

C1=C\CC/C=C\CC/1.[Cl][Pt][Cl] [Pt1]
in vivo activity [1]: no in vivo activity was observed
MIC [2]: 3.13 to 6.25 µM
MIC (B. subtilis 168CA): 6.25 µM
localization of FtsZ [3]: remained unaffected
time compound remains intact in aqueous environment (1H-NMR) ([4]; DMSO-d6 with 10% D2O, 37 °C): at least 24 h
time compound remains intact (NMR) ([4]; approximately 7 mM in DMSO-d6, 37 °C, 1H and 195Pt NMR): at least 48 h
DNA molecule length shift (λ-phage DNA; 3.125 µM Pt1, 25 µM Pt8, 100 µM CisPt, 10 min): shorter fragments
DNA fragmentation at swapped (equimolar comparison) concentrations (λ-phage DNA; 25 µM Pt1, 3.125 µM Pt8): stronger DNA fragmentation
Nile red foci (membrane stress) (B. subtilis bSS82; 3.125 µM, not statistically supported): Nile red foci, indicating membrane stress, were observed
DAPI fluorescence intensity (B. subtilis bSS82; [7]): significant reduction of the DAPI signal
nucleoid compaction (cell area vs DAPI-stained nucleoid area) (B. subtilis bSS82; [7]): clear nucleoid compaction
MIC [5]: 3.125 µM
FIC B (S. aureus ATCC 29213; antibiotic in combination with Pt1 / alone): 1
FIC (FICA+FICB) (S. aureus ATCC 29213; combination with Pt1): 2
Interference (S. aureus ATCC 29213; combination with Pt1, synergistic ≤0.5, indifferent >0.5 to 4, antagonistic >4): no interaction
MIC (S. aureus ATCC 29213; compound alone, Table S8): 0.125 µg/mL
HC50 [6]: >200 µM
IC50 (Vero cells): > 134 µM
MIC (MRSA NRS 191): 0.25 µg/mL and 0.67 µM
